Molecular target: T1, cathepsin K (Homo sapiens, UniProt P43235)
T1 construct: the active enzyme was obtained as the enzyme fraction by using detergent containing lysis buffer; made in house; host or cells: HEK293T (GenHunter Corporation), transient expression; detergent lysate used as enzyme fraction
T1 sequence (P43235 115-329): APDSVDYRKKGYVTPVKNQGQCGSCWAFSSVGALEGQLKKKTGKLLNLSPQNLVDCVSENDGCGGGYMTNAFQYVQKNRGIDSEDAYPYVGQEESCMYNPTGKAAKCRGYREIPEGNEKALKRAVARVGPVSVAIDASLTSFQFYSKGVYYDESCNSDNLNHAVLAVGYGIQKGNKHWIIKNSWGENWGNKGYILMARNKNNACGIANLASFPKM
Test: Cathepsin K inhibitory activity (fluorescent substrate Z-Leu-Arg-MCA)
Assay type: biochemical
Details: enzyme expressed in HEK293T; 15 min preincubation, 30 min reaction at room temperature, pH 5.5; read-out: Activity Intensity (cathepsin K inhibitory activity, pIC50 class) (converted)
Protocol: Cathepsin K inhibitory activities of the compounds synthesized according to the methods of the above examples were measured.
Cathepsin K used for evaluation of inhibitory activity was transiently expressed in an animal cell HEK293T (made by GenHunter Corporation) and the active enzyme was obtained as the enzyme fraction by using detergent containing lysis buffer.
The enzyme solution A was prepared at 2.1 times final concentration by diluting the enzyme fraction with assay buffer (50 mM sodium acetate, 50 mM sodium chloride, 2 mM DTT, pH 5.5). The test compound solutions B were prepared at 50 times final target concentrations by dimethylsulfoxide (DMSO). As a substrate solution C, a solution of a fluorescent substrate, benzyloxycarbonyl-L-leucyl-L-arginyl-4-methyl-coumaryl-7-amide (Z-Leu-Arg-MCA (Peptide Institute Inc.), was prepared at 10 μM by an assay buffer.
To the enzyme solution A (38.4 μL) were added the test compound solutions B (1.6 μL) and mixed individually. The mixtures were incubated at room temperature for 15 minutes. To the incubated solutions were added the substrate solution C (40 μL) and the mixtures were reacted at room temperature for 30 minutes respectively. The fluorescence intensities of the enzyme reaction solutions were measured at excitation wavelength of 355 nm and measurement wavelength of 460 nm and the enzyme activities were calculated from these fluorescence intensities caused by 7-amino-4-methylcoumarine released. The enzyme activity with using DMSO instead of the test compound solution B was taken as 100% and the inhibitory rates at each concentration of the test compound were calculated. The […] response curve was fitted to the plots. The 50% inhibitory concentration against cathepsin K was calculated from this curve.
Note that the symbols (+, ++, and +++) in this table represent the inhibitory activity values as below. Here, pIC50 is the value representing a negative logarithm of IC50, (−log10(IC50)). IC50 is a 50% inhibitory concentration.

SMILES	IC50 [nM]
CC[C@@H](CNc1ccc(OCC(N)=O)cc1OC)NC(=O)[C@H](CC(C)(C)F)N[C@@H](c1ccccc1)C(F)(F)F [Compound 133, (2S)—N-[(1S)-1-({[4-(carbamoylmethoxy)-2-methoxyphenyl]amino}methyl)propyl]-2-[((1S)-2,2,2-trifluoro-1-phenylethyl)amino]-4-fluoro-4-methylpentanamide]	≤ 3.16
CC[C@@H](CNc1c(OC)cccc1OC)NC(=O)[C@H](CC(C)(C)F)N[C@@H](c1ccc(Br)cc1)C(F)(F)F [Compound 15]	3.16 to 31.6
CCOc1ccc(NC[C@H](CC)NC(=O)[C@H](CC(C)(C)F)N[C@@H](c2ccc(-c3ccc(S(C)(=O)=O)cc3)cc2)C(F)(F)F)cc1OCC [Compound 4, (2S)—N-((1S)-1-{[(3,4-diethoxyphenyl)amino]methyl}propyl)-2-[((1S)-2,2,2-trifluoro-1-{4-[4-(methylsulfonyl)phenyl]phenyl}ethyl)amino]-4-fluoro-4-methylpentanamide]	≤ 3.16
CC[C@@H](CNc1ccc(-n2nccc2C(=O)O)cc1)NC(=O)[C@H](CC(C)C)N[C@@H](c1ccccc1)C(F)(F)F [Compound 143]	31.6 to 10000
CC[C@@H](CNc1ccc(N2C[C@@H](C)O[C@@H](C)C2)cc1)NC(=O)[C@H](CC(C)C)N[C@@H](c1ccccc1)C(F)(F)F [Compound 51]	≤ 3.16
CC[C@@H](CNc1ccc(N2CCOCC2)cc1)NC(=O)C1(NC(c2ccccc2)C(F)(F)F)CCCCC1 (stereo partly drawn) [Compound 11, N-((1S)-1-{[(4-morpholin-1-ylphenyl)amino]methyl}propyl) {[(2,2,2-trifluoro-1-phenylethyl)amino]cyclohexyl}carboxamide]	3.16 to 31.6
CC[C@@H](CNc1ccc(OC)cc1OC)NC(=O)[C@H](CC(C)C)N[C@@H](c1ccc(OC)cc1)C(F)(F)F [Compound 95]	≤ 3.16
CC[C@@H](CNc1ccc(OCCCC(=O)OC)cc1OC)NC(=O)[C@H](CC(C)C)N[C@@H](c1ccccc1)C(F)(F)F [Compound 85]	≤ 3.16
CC[C@@H](CNc1ccc(OCCS(C)(=O)=O)cc1OC)NC(=O)[C@H](CC(C)C)N[C@@H](c1ccc(OC)nc1)C(F)(F)F [Compound 38]	3.16 to 31.6
CC[C@@H](CNc1ccc(N2CCOCC2)cc1)NC(=O)[C@H](CC(C)C)N[C@@H](Cc1ccccc1)C(F)(F)F [Compound 37]	≤ 3.16
CC[C@@H](CNc1ccc(OC)cc1OC)NC(=O)[C@H](Cc1ccccc1)N[C@@H](c1ccccc1)C(F)(F)F [Compound 57]	31.6 to 10000
CC(C)C[C@H](N[C@@H](c1ccc(=O)[nH]c1)C(F)(F)F)C(=O)N[C@@H](C)CNc1ccc(N2CCOCC2)cc1 [Compound 72]	≤ 3.16
CC[C@@H](CNc1ccc(N2CCSCC2)cc1)NC(=O)[C@H](CC(C)(C)F)N[C@@H](c1ccc(Br)cc1)C(F)(F)F [Compound 18]	≤ 3.16
CC[C@@H](CNc1ccc(OCCO)cc1OC)NC(=O)[C@H](CC(C)(C)F)N[C@@H](c1ccccc1)C(F)(F)F [Compound 42]	≤ 3.16
CC[C@@H](CNc1ccc(N2CCOCC2)cc1)NC(=O)[C@H](CC(C)C)N[C@@H](c1ccc(N(C)C)cc1)C(F)(F)F [Compound 35]	≤ 3.16
COc1ccc(NC[C@H](C)NC(=O)C2(NC(c3ccccc3)C(F)(F)F)CCCCC2)c(OC)c1 (stereo partly drawn) [Compound 110]	31.6 to 10000
COc1ccc(NC[C@H](CO)NC(=O)[C@H](CC(C)(C)F)N[C@@H](c2ccc(-c3ccc(S(C)(=O)=O)cc3)cc2)C(F)(F)F)cc1 [Compound 3, N-((1R)-2-hydroxy-1-{[(4-methoxyphenyl)amino]methyl}ethyl)(2S)-2-[((1S)-2,2,2-trifluoro-1-{4-[4-(methylsulfonyl)phenyl]phenyl}ethyl)amino]-4-fluoro-4-methylpentanamide]	3.16 to 31.6
CC(C)C[C@H](N[C@@H](c1ccccc1)C(F)(F)F)C(=O)N[C@@H](CCC#N)CNc1ccc(N2CCOCC2)cc1 [Compound 92]	≤ 3.16

SMILES	IC50 [nM]
COc1ccc(NC[C@H](CCS(C)(=O)=O)NC(=O)[C@H](CC(C)C)N[C@@H](c2ccc(OC)nc2)C(F)(F)F)c(OC)c1 [Compound 84]	31.6 to 10000
CC[C@@H](CNc1ccc(OCC(=O)N2CCOCC2)cc1OC)NC(=O)[C@H](CC(C)(C)F)N[C@@H](c1ccccc1)C(F)(F)F [Compound 136]	≤ 3.16
CC[C@@H](CNc1ccc(OC)cc1OC)NC(=O)[C@H](CC(C)C)N[C@@H](c1ccc(=O)n(C)c1)C(F)(F)F [Compound 44]	3.16 to 31.6
CC(C)C[C@H](N[C@@H](c1ccccc1)C(F)(F)F)C(=O)N[C@@H](CCCC(=O)OC(C)(C)C)CNc1ccc(N2CCOCC2)cc1 [Compound 91]	≤ 3.16
CCOC(=O)c1ccnn1-c1ccc(NC[C@H](CC)NC(=O)[C@H](CC(C)C)N[C@@H](c2ccc(OC)nc2)C(F)(F)F)cc1 [Compound 115]	31.6 to 10000
COc1ccc([C@H](N[C@@H](CC(C)C)C(=O)N[C@H](CNc2ccc(OC)cc2OC)CC(C)C)C(F)(F)F)cc1 [Compound 65]	≤ 3.16
CC[C@@H](CNc1ccc(OCC#N)cc1OC)NC(=O)[C@H](CC(C)(C)F)N[C@@H](c1ccccc1)C(F)(F)F [Compound 161, (2S)—N-[(1S)-1-({[4-(cyanomethoxy)-2-methoxyphenyl]amino}methyl)propyl]-2-[((1S)-2,2,2-trifluoro-1-phenylethyl)amino]-4-fluoro-4-methylpentanamide]	≤ 3.16
CC(C)C[C@H](N[C@@H](c1ccccc1)C(F)(F)F)C(=O)N[C@@H](CCCNC(=O)OCc1ccccc1)CNc1ccc(N2CCOCC2)cc1 [Compound 103]	≤ 3.16
CC[C@@H](CNc1ccc(OC)cc1OC)NC(=O)[C@H](CC(C)(C)F)N[C@@H](c1ccc(Br)cc1)C(F)(F)F [Compound 6]	≤ 3.16
CC(C)C[C@H](N[C@@H](c1ccccc1)C(F)(F)F)C(=O)N[C@@H](CCNC(=O)OCc1ccccc1)CNc1ccc(N2CCOCC2)cc1 [Compound 105]	≤ 3.16
CC(C)C[C@H](N[C@@H](c1ccccc1)C(F)(F)F)C(=O)N[C@@H](CNC(=O)OCc1ccccc1)CNc1ccc(N2CCOCC2)cc1 [Compound 104]	≤ 3.16
COc1ccc(NC[C@H](C)NC(=O)[C@H](CC(C)C)N[C@@H](c2ccc(=O)[nH]c2)C(F)(F)F)c(OC)c1 [Compound 76]	3.16 to 31.6
CC[C@@H](CNc1ccc(N2CCCC2=O)cc1)NC(=O)[C@H](CC(C)C)N[C@@H](c1ccccc1)C(F)(F)F [Compound 53]	3.16 to 31.6
CC(C)C[C@H](N[C@@H](c1ccccc1)C(F)(F)F)C(=O)N[C@@H](CCCO)CNc1ccc(N2CCOCC2)cc1 [Compound 125]	31.6 to 10000
CC(C)C[C@H](N[C@@H](c1cccnc1)C(F)(F)F)C(=O)N[C@@H](C)CNc1ccc(N2CCOCC2)cc1 [Compound 74]	≤ 3.16
COc1ccc(NC[C@H](COCc2ccccc2)NC(=O)[C@H](CC(C)(C)F)N[C@@H](c2ccc(-c3ccc(S(C)(=O)=O)cc3)cc2)C(F)(F)F)cc1 [Compound 2, N-{(1R)-2-[(4-methoxyphenyl)amino]-1-[(phenylmethoxy)methyl]ethyl}(2S)-2-[((1S)-2,2,2-trifluoro-1-{4-[4-(methylsulfonyl)phenyl]phenyl}ethyl)amino]-4-fluoro-4-methylpentanamide]	31.6 to 10000
COc1ccc(NC[C@H](C)NC(=O)[C@H](CC(C)C)N[C@@H](c2ccc(OC)nc2)C(F)(F)F)c(OC)c1 [Compound 79]	3.16 to 31.6
CCOC(=O)CCCCOc1ccc(NC[C@H](CC)NC(=O)[C@H](CC(C)C)N[C@@H](c2ccccc2)C(F)(F)F)c(OC)c1 [Compound 86]	≤ 3.16

Source: US20090291945A1, “CYSTEINE PROTEASE INHIBITORS” (Teijin Pharma Limited, priority 2008, published 2009)
